From ChEMBL document CHEMBL4725311, “Discovery of potent, orally bioavailable in vivo efficacious antagonists of the TLR7/8 pathway” (Bioorg Med Chem Lett, 2020)
pIC50: −log10 of the molar value.

Experiments:
[1] = molecular target: T1, Toll-like receptor 7 (Mus musculus, UniProt P58681); assay: Antagonist activity at TLR7 in mouse splenocytes assessed as inhibition of ssRNA40-induced IL6 production; assay type: cell-based, Splenocyte
T1 sequence (P58681 whole entry): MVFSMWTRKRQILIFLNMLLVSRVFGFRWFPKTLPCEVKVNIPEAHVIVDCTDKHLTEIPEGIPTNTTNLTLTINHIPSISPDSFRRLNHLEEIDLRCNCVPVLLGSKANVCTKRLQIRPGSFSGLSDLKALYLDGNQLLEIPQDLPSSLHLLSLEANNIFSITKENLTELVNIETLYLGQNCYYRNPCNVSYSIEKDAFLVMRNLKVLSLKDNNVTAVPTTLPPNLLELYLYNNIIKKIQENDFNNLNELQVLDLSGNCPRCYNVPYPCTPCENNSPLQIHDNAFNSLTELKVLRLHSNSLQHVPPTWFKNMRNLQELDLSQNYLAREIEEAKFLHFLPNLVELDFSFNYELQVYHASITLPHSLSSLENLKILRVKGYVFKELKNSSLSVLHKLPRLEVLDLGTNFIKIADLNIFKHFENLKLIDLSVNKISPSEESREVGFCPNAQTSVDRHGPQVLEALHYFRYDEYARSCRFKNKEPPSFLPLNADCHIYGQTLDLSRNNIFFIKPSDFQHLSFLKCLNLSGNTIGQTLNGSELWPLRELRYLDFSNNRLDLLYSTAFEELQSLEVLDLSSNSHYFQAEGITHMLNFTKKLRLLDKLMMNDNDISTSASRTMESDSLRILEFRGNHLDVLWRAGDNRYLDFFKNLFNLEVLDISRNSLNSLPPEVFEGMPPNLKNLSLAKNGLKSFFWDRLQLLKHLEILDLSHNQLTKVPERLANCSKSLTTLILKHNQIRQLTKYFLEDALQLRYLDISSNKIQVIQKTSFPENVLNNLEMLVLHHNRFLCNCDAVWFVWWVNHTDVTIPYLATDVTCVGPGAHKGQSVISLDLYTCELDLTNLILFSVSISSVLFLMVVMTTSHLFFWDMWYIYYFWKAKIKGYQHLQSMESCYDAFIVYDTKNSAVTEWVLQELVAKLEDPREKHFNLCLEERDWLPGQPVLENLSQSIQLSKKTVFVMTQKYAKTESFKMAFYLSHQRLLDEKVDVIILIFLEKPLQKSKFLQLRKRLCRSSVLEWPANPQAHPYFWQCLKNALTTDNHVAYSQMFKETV

[2] = molecular target: T2, Toll-like receptor 9 (Mus musculus, UniProt Q9EQU3); assay: Antagonist activity at TLR9 in mouse splenocytes assessed as inhibition of CpG1585-induced IL6 production; assay type: cell-based, Splenocyte
T2 sequence (Q9EQU3 whole entry): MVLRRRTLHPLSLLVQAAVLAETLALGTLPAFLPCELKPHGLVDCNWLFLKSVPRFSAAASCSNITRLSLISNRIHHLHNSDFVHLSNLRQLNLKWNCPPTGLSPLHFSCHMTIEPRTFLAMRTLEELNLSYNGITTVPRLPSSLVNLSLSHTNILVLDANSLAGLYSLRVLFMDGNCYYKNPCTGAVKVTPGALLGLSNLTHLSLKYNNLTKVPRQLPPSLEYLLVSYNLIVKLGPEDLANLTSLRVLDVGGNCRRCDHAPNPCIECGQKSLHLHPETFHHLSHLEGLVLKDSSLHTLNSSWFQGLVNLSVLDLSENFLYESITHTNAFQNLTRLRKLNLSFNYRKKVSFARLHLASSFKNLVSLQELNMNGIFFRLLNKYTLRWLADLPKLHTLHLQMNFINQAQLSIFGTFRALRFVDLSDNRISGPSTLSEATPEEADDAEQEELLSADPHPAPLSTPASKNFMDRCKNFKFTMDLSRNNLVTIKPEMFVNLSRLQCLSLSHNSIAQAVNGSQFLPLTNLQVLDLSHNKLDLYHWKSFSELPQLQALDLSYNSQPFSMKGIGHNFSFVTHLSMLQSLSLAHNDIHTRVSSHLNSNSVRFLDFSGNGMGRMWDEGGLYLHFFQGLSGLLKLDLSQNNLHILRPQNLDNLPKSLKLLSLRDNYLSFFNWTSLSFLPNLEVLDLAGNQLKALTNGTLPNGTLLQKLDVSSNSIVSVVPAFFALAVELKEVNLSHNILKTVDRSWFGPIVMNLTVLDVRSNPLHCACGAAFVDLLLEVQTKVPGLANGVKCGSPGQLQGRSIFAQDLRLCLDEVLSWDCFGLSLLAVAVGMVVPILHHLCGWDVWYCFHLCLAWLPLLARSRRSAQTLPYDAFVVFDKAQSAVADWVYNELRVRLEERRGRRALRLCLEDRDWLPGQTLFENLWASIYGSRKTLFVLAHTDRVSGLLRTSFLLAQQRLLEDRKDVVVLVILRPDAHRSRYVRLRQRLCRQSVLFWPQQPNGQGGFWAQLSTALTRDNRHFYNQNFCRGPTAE

[3] = molecular target: T3, Toll-like receptor 8 (Homo sapiens, UniProt Q9NR97); assay: Antagonist activity at TLR8 in human THP-1 cells assessed as inhibition of resiquimod-induced TNFalpha production; assay type: cell-based
T3 sequence (Q9NR97 whole entry): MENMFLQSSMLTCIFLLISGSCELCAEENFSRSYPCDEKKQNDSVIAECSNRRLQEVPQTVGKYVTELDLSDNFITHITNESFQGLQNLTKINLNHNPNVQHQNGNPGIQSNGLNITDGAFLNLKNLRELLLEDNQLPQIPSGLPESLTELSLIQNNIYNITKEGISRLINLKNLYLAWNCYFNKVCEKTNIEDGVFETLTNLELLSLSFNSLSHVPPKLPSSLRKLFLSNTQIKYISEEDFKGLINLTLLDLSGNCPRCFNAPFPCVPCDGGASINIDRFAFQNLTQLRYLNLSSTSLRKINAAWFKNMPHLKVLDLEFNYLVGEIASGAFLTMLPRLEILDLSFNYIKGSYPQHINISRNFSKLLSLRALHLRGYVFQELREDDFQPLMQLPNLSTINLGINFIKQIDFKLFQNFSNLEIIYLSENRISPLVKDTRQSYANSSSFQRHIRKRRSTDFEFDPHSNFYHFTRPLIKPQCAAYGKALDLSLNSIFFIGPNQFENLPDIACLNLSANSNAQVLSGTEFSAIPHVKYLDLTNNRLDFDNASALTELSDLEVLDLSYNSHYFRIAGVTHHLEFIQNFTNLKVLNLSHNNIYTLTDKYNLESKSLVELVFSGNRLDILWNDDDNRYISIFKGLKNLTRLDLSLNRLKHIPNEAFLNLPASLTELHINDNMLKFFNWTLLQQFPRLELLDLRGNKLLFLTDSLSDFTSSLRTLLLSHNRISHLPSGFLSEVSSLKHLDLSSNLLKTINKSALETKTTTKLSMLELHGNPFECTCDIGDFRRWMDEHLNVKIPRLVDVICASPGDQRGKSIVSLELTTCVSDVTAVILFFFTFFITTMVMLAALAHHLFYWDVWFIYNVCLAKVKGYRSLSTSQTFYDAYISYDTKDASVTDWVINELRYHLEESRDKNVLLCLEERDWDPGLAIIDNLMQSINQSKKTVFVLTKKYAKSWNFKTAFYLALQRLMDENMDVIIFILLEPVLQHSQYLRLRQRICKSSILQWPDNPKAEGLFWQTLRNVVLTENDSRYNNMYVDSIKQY

[4] = molecular target: T4, Toll-like receptor 9 (Homo sapiens, UniProt Q9NR96); assay: Antagonist activity at TLR9 in human PBMC assessed as inhibition of ODN2216-induced IFNalpha production; assay type: tissue-based
T4 sequence (Q9NR96 whole entry): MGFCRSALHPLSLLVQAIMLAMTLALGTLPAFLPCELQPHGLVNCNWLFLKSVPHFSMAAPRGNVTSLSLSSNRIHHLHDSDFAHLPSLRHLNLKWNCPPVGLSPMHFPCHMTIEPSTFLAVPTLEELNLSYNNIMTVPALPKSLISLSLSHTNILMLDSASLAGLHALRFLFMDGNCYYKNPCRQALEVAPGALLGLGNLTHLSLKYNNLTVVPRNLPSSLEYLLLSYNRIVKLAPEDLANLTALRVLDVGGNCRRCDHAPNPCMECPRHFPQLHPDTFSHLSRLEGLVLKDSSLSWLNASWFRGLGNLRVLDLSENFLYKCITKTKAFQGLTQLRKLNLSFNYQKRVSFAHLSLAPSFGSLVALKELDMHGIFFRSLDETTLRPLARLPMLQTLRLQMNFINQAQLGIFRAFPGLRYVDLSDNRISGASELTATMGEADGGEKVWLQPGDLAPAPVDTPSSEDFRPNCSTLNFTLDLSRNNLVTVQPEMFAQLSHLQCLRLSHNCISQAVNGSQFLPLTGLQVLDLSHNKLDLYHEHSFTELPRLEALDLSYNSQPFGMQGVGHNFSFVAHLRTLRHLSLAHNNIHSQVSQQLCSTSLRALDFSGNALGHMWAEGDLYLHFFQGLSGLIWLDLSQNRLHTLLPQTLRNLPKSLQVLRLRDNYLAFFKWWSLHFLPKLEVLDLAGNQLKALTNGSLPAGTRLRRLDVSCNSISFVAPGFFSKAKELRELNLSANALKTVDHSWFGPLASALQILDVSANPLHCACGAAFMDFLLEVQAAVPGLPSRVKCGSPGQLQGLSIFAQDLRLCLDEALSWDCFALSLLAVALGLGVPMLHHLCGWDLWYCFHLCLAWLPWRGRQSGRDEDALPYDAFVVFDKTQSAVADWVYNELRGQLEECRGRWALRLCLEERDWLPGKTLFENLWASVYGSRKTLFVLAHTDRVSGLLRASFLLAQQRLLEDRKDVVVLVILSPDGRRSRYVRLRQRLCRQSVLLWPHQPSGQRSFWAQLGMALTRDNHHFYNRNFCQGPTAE

[5] = AUC in BALB/c mouse at 20 mg/kg, po; assay type: ADME, organism-based; parameters: dose 20 mg/kg; details: in vivo
[6] = Cmax in BALB/c mouse at 20 mg/kg, po; assay type: ADME, organism-based; parameters: route oral, dose 20 mg/kg; details: in vivo
[7] = Clearance in BALB/c mouse at 5 mg/kg, iv; assay type: ADME, organism-based; details: in vivo
[8] = Volume of distribution at steady state in BALB/c mouse at 5 mg/kg, iv; assay type: ADME, organism-based; details: in vivo, read-out: Vdss
[9] = Terminal half life in BALB/c mouse at 5 mg/kg, iv; assay type: ADME, organism-based; details: in vivo, read-out: beta t1/2 (converted)
[10] = Oral bioavailability in BALB/c mouse at 20 mg/kg; assay type: ADME, organism-based; details: in vivo
[11] = molecular target: T1, Toll-like receptor 7; assay: Antagonist activity at TLR7 in mouse P4H1 cells assessed as inhibition of imiquimod-induced IL6 production; assay type: cell-based
[12] = Drug uptake in 129Sv mouse at 30 mg/kg, ip measured after 2 hrs; assay type: ADME, organism-based; details: in vivo, read-out: Drug uptake

Row | SMILES | pIC50 [1] | pIC50 [2] | pIC50 [3] | pIC50 [4] | AUC [5] [µM·h] | Cmax [6] [nM] | clearance [7] [mL/min/kg] | Vd [8] [L/kg] | half-life [9] [h] | bioavailability [10] [%] | pIC50 [11] | concentration at 2 h [12] [nM]
1 | Cc1cc(-c2ccnc3[nH]ncc23)cnc1OCC12CCC(N)(CC1)CC2 | 8.40 | 5.92 | > 9.00 | 6.00 | 29.6 | 3230 | 23 | 5.1 | 4 | 75 |  | 
2 | Cn1ncc2c(-c3ccc(OCC45CCC(N)(CC4)CC5)c(F)c3)nc(N)nc21 | 6.52 | 6.10 |  | 5.43 |  |  |  |  |  |  |  | 
3 | Cn1nc(-c2ccc(OCCCC3CCNCC3)c(F)c2)c2cnc(N)nc21 | 7.01 | 5.89 |  | 5.64 |  |  | 165 | 29 | 5.9 | 0 |  | 1500
4 | Cn1nc(-c2ccc(OCC3CC4(CNC4)C3)c(F)c2)c2cnc(N)nc21 |  | 5.92 |  | 5.19 |  |  |  |  |  |  |  | 

Now from value to molecule:

Row | pIC50 [1] | pIC50 [2] | pIC50 [3] | pIC50 [4] | AUC [5] [µM·h] | Cmax [6] [nM] | clearance [7] [mL/min/kg] | Vd [8] [L/kg] | half-life [9] [h] | bioavailability [10] [%] | pIC50 [11] | concentration at 2 h [12] [nM] | SMILES
5 | 7.26 | < 5.00 |  | < 5.30 | 36.3 | 4370 | 11 | 3.1 | 4.7 | 43 |  |  | Cc1cc(-c2ccnc3[nH]ncc23)cnc1OCC12CCC(O)(CC1)CC2
6 | 5.70 | 5.70 |  |  |  |  |  |  |  |  | 6.77 |  | CN1CCN(CCCOc2ccc(-c3nn(C)c4nc(N)ncc34)cc2F)CC1
7 | 5.92 | 5.55 |  | 5.28 |  |  |  |  |  |  |  |  | Cn1nc(-c2ccc(OCC34CCC(O)(CC3)CC4)c(F)c2)c2cnc(N)nc21
8 | 7.42 | 6.08 |  | 5.57 | 3.05 | 506 | 98 | 15 | 4.1 | 36 |  |  | Cn1nc(-c2ccc(OCC34CCC(N)(CC3)CC4)c(F)c2)c2cnc(N)nc21
